How the values were obtained:
[1] = biological target: interaction between PD-1 and PD-L1 (Homo sapiens, UniProt Q9NZQ7); assay: PD-1/PD-L1 protein-protein interaction assay (ALPHA); assay type: binding; conditions: 2 nM His-tagged human PD-L1, 0.6 nM PD-1-Fc, AlphaScreen
Procedure: PD-1′PD-L1 Protein-Protein Interaction Assay
Amplified Luminescent Proximity Homogeneous Assay (ALPHA) platform was used to evaluate the ability of the compounds to block the interaction between PD-1 and PD-L1. The assays were performed in half volume white 96-well plate in a final volume of 40 μl. Compounds at various concentrations were preincubated with 2 nM His tagged recombinant human PD-L1 protein and 0.6 nM recombinant PD-1 protein with Fc-tag (both reagents were purchased from AcroBiosystems) for 40 minutes. After the preincubation, 20 μg/mL of Alphascreen Ni chelate donor beads (PerkinElmer, USA) and Protein A acceptor beads (PerkinElmer, USA) were added into the well and incubated under reduced light at 25° C. for 120 minutes. The signal was measured with the EnSight Multimode Plate Reader. IC50 values were calculated from the four-parameter logistic curve fit.

PD-1/PD-L1 interaction = biological target: T1, PD-1/PD-L1 interaction (Homo sapiens, UniProt Q9NZQ7); assay: PD-1/PD-L1 blockage cell-based bioassay (Jurkat NFAT luciferase / CHO-PDL1 co-culture); conditions: Jurkat NFAT cells co-cultured with CHO-PDL1 cells, 6 h, luminescence
T1 construct: expressed in transfected cells
T1 sequence (Q9NZQ7 19-290): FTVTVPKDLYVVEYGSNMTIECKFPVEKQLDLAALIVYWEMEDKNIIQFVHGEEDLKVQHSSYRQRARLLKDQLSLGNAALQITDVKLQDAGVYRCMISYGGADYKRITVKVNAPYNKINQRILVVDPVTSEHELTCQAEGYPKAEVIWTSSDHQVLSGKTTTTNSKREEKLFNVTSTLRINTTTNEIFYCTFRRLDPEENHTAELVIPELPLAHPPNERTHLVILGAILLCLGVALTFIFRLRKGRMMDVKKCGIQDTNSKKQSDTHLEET

Chain of interaction between PD-1 and PD-L1 (Q9NZQ7 19-238 limits assumed): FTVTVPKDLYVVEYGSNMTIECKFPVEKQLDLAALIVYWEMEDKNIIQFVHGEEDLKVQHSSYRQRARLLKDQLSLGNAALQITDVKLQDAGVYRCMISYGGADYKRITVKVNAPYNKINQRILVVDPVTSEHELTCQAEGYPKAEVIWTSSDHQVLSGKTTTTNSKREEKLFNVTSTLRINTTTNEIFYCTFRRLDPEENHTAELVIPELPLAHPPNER

Structure (SMILES) | IC50 [1] [µM] | IC50 (PD-1/PD-L1 interaction) [µM]
COc1cc(-n2ncc3c(-c4cccc(-c5ccc(CN6CC(C(C)(C)O)C6)c(OC)n5)c4C)cccc32)cc(OC)c1CN1CC(C(C)(C)O)C1 [Example 136, 2-(1-((6-(3-(1-(4-((3-(2-hydroxypropan-2-yl)azetidin-1-yl)methyl)-3,5-dimethoxyphenyl)-1H-indazol-4-yl)-2-methylphenyl)-2-methoxypyridin-3-yl)methyl)azetidin-3-yl)propan-2-ol] | < 0.001 | 0.201 to 2
COc1cc(-n2ncc3c(-c4cccc(-c5ccc(CN6CC7(CNC(=O)C7)C6)c(OC)n5)c4Cl)cccc32)cc(OC)c1CN1CC(C(C)(C)O)C1 [Example 137, 2-((6-(2-chloro-3-(1-(4-((3-(2-hydroxypropan-2-yl)azetidin-1-yl)methyl)-3,5-dimethoxyphenyl)-1H-indazol-4-yl)phenyl)-2-methoxypyridin-3-yl)methyl)-2,6-diazaspiro[3.4]octan-7-one] | < 0.001 | 0.201 to 2
COc1cc(-n2ncc3c(-c4cccc(-c5ccc(CN6CC(C(C)(C)O)C6)c(OC)n5)c4Cl)cccc32)cc(OC)c1CN1CC2(CNC(=O)C2)C1 [Example 138, 2-(4-(4-(2-chloro-3-(5-((3-(2-hydroxypropan-2-yl)azetidin-1-yl)methyl)-6-methoxypyridin-2-yl)phenyl)-1H-indazol-1-yl)-2,6-dimethoxybenzyl)-2,6-diazaspiro[3.4]octan-7-one] | 0.001 to 0.01 | 0.201 to 2
COc1cc(-n2ncc3c(-c4cccc(-c5ccc(CN6CC7(CNC(=O)C7)C6)c(OC)n5)c4Cl)cccc32)cc(OC)c1CN[C@@](C)(CO)C(=O)O [Example 139, (S)-2-((4-(4-(2-chloro-3-(6-methoxy-5-((7-oxo-2,6-diazaspiro[3.4]octan-2-yl)methyl)pyridin-2-yl)phenyl)-1H-indazol-1-yl)-2,6-dimethoxybenzyl)amino)-3-hydroxy-2-methylpropanoic acid] | < 0.001 | < 0.2
COc1cc(-n2ncc3c(-c4cccc(-c5ccc(CN6CC(C(C)(C)O)C6)c(OC)n5)c4Cl)cccc32)cc(OC)c1CN1CC2(CCC(=O)N2)C1 [Example 140, 2-(4-(4-(2-chloro-3-(5-((3-(2-hydroxypropan-2-yl)azetidin-1-yl)methyl)-6-methoxypyridin-2-yl)phenyl)-1H-indazol-1-yl)-2,6-dimethoxybenzyl)-2,5-diazaspiro[3.4]octan-6-one] | 0.001 to 0.01 | 0.201 to 2
COc1cc(-n2ncc3c(-c4cccc(-c5ccc(CN6CC7(CNC(=O)C7)C6)c(OC)n5)c4Cl)cccc32)cc(OC)c1CN[C@H](C(=O)O)[C@@H](C)O [Example 141, (4-(4-(2-chloro-3-(6-methoxy-5-((7-oxo-2,6-diazaspiro[3.4]octan-2-yl)methyl)pyridin-2-yl)phenyl)-1H-indazol-1-yl)-2,6-dimethoxybenzyl)-L-threonine] | < 0.001 | < 0.2
COc1cc(-n2ncc3c(-c4cccc(-c5ccc(CN6CC(C(C)(C)O)C6)c(OC)n5)c4Cl)cccc32)ncc1CNCCO [Example 142, 2-(1-((6-(2-chloro-3-(1-(5-(((2-hydroxyethyl)amino)methyl)-4-methoxypyridin-2-yl)-1H-indazol-4-yl)phenyl)-2-methoxypyridin-3-yl)methyl)azetidin-3-yl)propan-2-ol] | < 0.001 | < 0.2
CCOC(=O)[C@@H](NCc1c(OC)cc(-n2ncc3c(-c4cccc(-c5ccc(CN6CC7(CNC(=O)C7)C6)c(OC)n5)c4Cl)cccc32)cc1OC)[C@@H](C)O [Example 145, Ethyl (4-(4-(2-chloro-3-(6-methoxy-5-((7-oxo-2,6-diazaspiro[3.4]octan-2-yl)methyl)pyridin-2-yl)phenyl)-1H-indazol-1-yl)-2,6-dimethoxybenzyl)-L-threoninate] | 0.001 to 0.01 | 0.201 to 2
CCOC(=O)[C@@H](NCc1c(OC)cc(-n2ncc3c(-c4cccc(-c5ccc(CNC[C@@H]6CCC(=O)N6)c(OC)n5)c4Cl)cccc32)cc1OC)[C@@H](C)O [Example 146, (2S,3R)-ethyl 2-((4-(4-(2-chloro-3-(6-methoxy-5-(((((S)-5-oxopyrrolidin-2-yl)methyl)amino)methyl)pyridin-2-yl)phenyl)-1H-indazol-1-yl)-2,6-dimethoxybenzyl)amino)-3-hydroxybutanoate] | < 0.001 | 0.201 to 2
CCOC(=O)[C@@H](CO)NCc1c(OC)cc(-n2ncc3c(-c4cccc(-c5ccc(CNC[C@@H]6CCC(=O)N6)c(OC)n5)c4Cl)cccc32)cc1OC [Example 147, Ethyl (2R)-2-[({4-[4-(2-chloro-3-{6-methoxy-5-[({[(2S)-5-oxopyrrolidin-2-yl]methyl)amino)methyl}pyridin-2-yl}phenyl)-1H-indazol-1-yl]-2,6-dimethoxyphenyl}methyl)amino]-3-hydroxypropanoate] | 0.001 to 0.01 | 0.201 to 2
COc1cc(-n2ncc3c(-c4cccc(-c5ccc(CN6CC7(CNC(=O)C7)C6)c(OC)n5)c4Cl)cccc32)cc(OC)c1CN1CC(C(=O)O)C1 [Example 150, 1-(4-(4-(2-chloro-3-(6-methoxy-5-((7-oxo-2,6-diazaspiro[3.4]octan-2-yl)methyl)pyridin-2-yl)phenyl)-1H-indazol-1-yl)-2,6-dimethoxybenzyl)azetidine-3-carboxylic acid] | < 0.001 | < 0.2
CCOC(=O)C1(C)CN(Cc2c(OC)cc(-n3ncc4c(-c5cccc(-c6ccc(CNC[C@@H]7CCC(=O)N7)c(OC)n6)c5Cl)cccc43)cc2OC)C1 [Example 151, ethyl (S)-1-(4-(4-(2-chloro-3-(6-methoxy-5-((((5-oxopyrrolidin-2-yl)methyl)amino)methyl)pyridin-2-yl)phenyl)-1H-indazol-1-yl)-2,6-dimethoxybenzyl)-3-methylazetidine-3-carboxylate] | 0.001 to 0.01 | < 0.2
COc1cc(-n2ncc3c(-c4cccc(-c5nc6cc(CN7CC[C@@H](C(=O)O)C7)cc(C#N)c6o5)c4C)cccc32)cc(OC)c1CN1CC[C@@H](O)C1 [Example 154, (R)-1-((7-cyano-2-(3-(1-(4-(((R)-3-hydroxypyrrolidin-1-yl)methyl)-3,5-dimethoxyphenyl)-1H-indazol-4-yl)-2-methylphenyl)benzo[d]oxazol-5-yl)methyl)pyrrolidine-3-carboxylic acid] | < 0.001 | < 0.2
COc1cc(-n2ncc3c(-c4cccc(-c5nc6cc(CN7CC[C@@H](C(=O)O)C7)cc(C#N)c6o5)c4C)cccc32)cc(OC)c1CN1CC[C@H](O)C1 [Example 155, (R)-1-((7-cyano-2-(3-(1-(4-(((S)-3-hydroxypyrrolidin-1-yl)methyl)-3,5-dimethoxyphenyl)-1H-indazol-4-yl)-2-methylphenyl)benzo[d]oxazol-5-yl)methyl)pyrrolidine-3-carboxylic acid] | < 0.001 | < 0.2
COc1cc(-n2ncc3c(-c4cccc(-c5nc6cc(CN(C)C78CCC(C(=O)O)(CC7)CC8)cc(C#N)c6o5)c4C)cccc32)cc(OC)c1CN1CC[C@@H](O)C1 [Example 157, (R)-4-(((7-cyano-2-(3-(1-(4-((3-hydroxypyrrolidin-1-yl)methyl)-3,5-dimethoxyphenyl)-1H-indazol-4-yl)-2-methylphenyl)benzo[d]oxazol-5-yl)methyl)(methyl)amino)bicyclo[2.2.2]octane-1-carboxylic acid] | < 0.001 | < 0.2
COc1cc(-n2ncc3c(-c4cccc(Nc5nc(C(F)F)nc6cc(CN7CC[C@@H](O)C7)cnc56)c4C)cccc32)cc(OC)c1CN1CC[C@@](C)(C(=O)O)C1 [Example 158, (R)-1-(4-(4-(3-((2-(difluoromethyl)-7-(((R)-3-hydroxypyrrolidin-1-yl)methyl)pyrido[3,2-d]pyrimidin-4-yl)amino)-2-methylphenyl)-1H-indazol-1-yl)-2,6-dimethoxybenzyl)-3-methylpyrrolidine-3-carboxylic acid] | < 0.001 | < 0.2
COc1cc(-n2ncc3c(-c4cccc(-c5nc6cc(CN(C)C78CCC(C(=O)O)(CC7)CC8)cc(C#N)c6o5)c4C)cccc32)cc(OC)c1CN1CC(O)C1 [Example 159, 4-(((7-cyano-2-(3-(1-(4-((3-hydroxyazetidin-1-yl)methyl)-3,5-dimethoxyphenyl)-1H-indazol-4-yl)-2-methylphenyl)benzo[d]oxazol-5-yl)methyl)(methyl)amino)bicyclo[2.2.2]octane-1-carboxylic acid] | < 0.001 | < 0.2
COc1cc(-c2cccc(-c3cccc4c3cnn4-c3cc(OC)c(CN4CC5(CNC(=O)C5)C4)c(OC)c3)c2Cl)cc(F)c1CN(C)C12CCC(C(=O)O)(CC1)CC2 [Example 160, 4-(((2′-chloro-3′-(1-(3,5-dimethoxy-4-((7-oxo-2,6-diazaspiro[3.4]octan-2-yl)methyl)phenyl)-1H-indazol-4-yl)-3-fluoro-5-methoxy-[1,1′-biphenyl]-4-yl)methyl)(methyl)amino)bicyclo[2.2.2]octane-1-carboxylic acid] | < 0.001 | < 0.2
COc1cc(-n2ncc3c(-c4cccc(Nc5nc(C(F)F)nc6cc(CN7CC[C@@H](O)C7)cnc56)c4C)cccc32)cc(OC)c1CN1CCC(C(=O)O)CC1 [Example 163, (R)-1-(4-(4-(3-((2-(difluoromethyl)-7-((3-hydroxypyrrolidin-1-yl)methyl)pyrido[3,2-d]pyrimidin-4-yl)amino)-2-methylphenyl)-1H-indazol-1-yl)-2,6-dimethoxybenzyl)piperidine-4-carboxylic acid] | < 0.001 | 0.201 to 2
COc1cc(-c2cccc(-c3cccc4c3cnn4-c3cc(OC)c(CN4CC[C@@H](O)C4)c(OC)c3)c2Cl)cc(F)c1CN(C)C12CCC(C(=O)O)(CC1)CC2 [Example 164, (R)-4-(((2′-chloro-3-fluoro-β′-(1-(4-((3-hydroxypyrrolidin-1-yl)methyl)-3,5-dimethoxyphenyl)-1H-indazol-4-yl)-5-methoxy-[1,1′-biphenyl]-4-yl)methyl)(methyl)amino)bicyclo[2.2.2]octane-1-carboxylic acid] | < 0.001 | < 0.2

— patent publication US20240336601A1 (Chulalongkorn University, priority 2020, published 2024)
